Where a name gives a salt, the structure may show the parent alone. Read-outs that look alike come from different tables or passages of the source.

The conditions of experiment [1]: for Pi binding (FIG. 1): 24 hours; for Observed in vitro Pi Binding, %: inventor's experiments, mean of triplicate determinations. How it is done: The pH of each solution was adjusted to the desired value by the addition of concentrated hydrochloric acid or sodium hydroxide, as appropriate.
An HPLC method with conductivity detection was developed and validated for use in the determination of succinate, acetate and phosphate. The separation was performed on a Dionex AS11 […] HPLC column integrated with an Agilent Series 1100 HPLC system, and detection of the anionic species was enabled using a Dionex ED50 Electrochemical Detector, operating in Conductivity Mode. Limits of Detection and Quantitation were enhanced through the use of a Dionex Anion Self-Regenerating Suppressor. After assay-specific development and verification of assay performance were completed, the analysis of phosphate and succinate or acetate was performed by sampling the test solution and diluting it, if necessary, to a concentration within the linear range of the Assay. The sample was then injected onto the HPLC column and eluted with a sodium hydroxide gradient. Data were acquired using Agilent ChemStation® software.
Experimental Methods: Experiments were completed in triplicate in which 2.77 g of Na2HPO4.7 H2O (equivalent to 320 mg of elemental phosphorus) was dissolved in 570 mL of deionized water. The test or control binder was dissolved in deionized water to a volume of 30 mL. The binder solution was added to the phosphorus solution to give a final volume of 600 mL. For each binder study, the phosphorus solutions were titrated by addition of dilute HCl or dilute NaOH to five different initial pH levels: 4, 5, 6, 7, and 8. (These solution pH's span the pH range of the gastrointestinal tract.) Then the beakers containing the solutions were covered with plastic wrap and placed on a stir plate that agitated the solution at ˜20 cycles per minute overnight. This stirring rate has been selected because in vitro antacid activity at such low stirring rates has been reported to correlate well with in vivo antacid activity in the stomach. Samples for ion chromatographic assay of solution phosphate (Pi) were taken at 24 hours post-mixing (the maximum time available for phosphorus binding that has been reported in related in vivo studies). The decrease in phosphorus concentration from the original concentration in the phosphorus solution to that of the filtrate represents the bound phosphorus.

For experiment [2] the following is noted: Sheikh et al. 1989, cited from earlier work.
The conditions of experiment [3]: healthy human subjects, anticipated.
Source text: Net calcium absorption will be measured by a validated method, such as the one described in detail by Bo-Linn, G. W. et al., Journal of Clinical Investigation, 73: 640-647 (1984). The procedure that will be followed is described below.
On each day, subjects will be prepared by a mannitol-electrolyte gastrointestinal lavage, in order to cleanse the gastrointestinal tract. […] Then each subject will eat a test meal of 80 g ground sirloin steak, 100 g French fried potatoes, 30 g Swiss cheese and 250 mL water containing 10 g of polyethylene glycol (PEG3500) as a non-absorbable marker. After the meal, each subject will consume 25 mEq of calcium, in the same form as will have been consumed prior to the meal, or additional placebo, with 100 mL of water. Duplicate meals will be prepared (one for consumption and one to be analyzed for calcium and phosphorus). The duplicate meals will be analyzed for calcium and phosphorus and are expected to contain about 350 mg of phosphorus and about 215 mg of calcium. […]
Ten hours after a meal, a second lavage will be begun, using the procedure described above. […] All urine voided during the 10-hour period will be collected and analyzed for phosphorus and calcium. Rectal effluent will be collected, pooled with any stool passed during the 10-hour period and analyzed for phosphorus and calcium. Absorption will be calculated according to the following equation: […]

In the case of `CC(=O)[O-].CC(=O)[O-].[Ca+2]` [Calcium Acetate, calcium acetate], the “Pi binding (FIG. 1)” value is 100% in experiment [1] (pH 4); 92% in experiment [1] (pH 5); 100% in experiment [1] (pH 6); 100% in experiment [1] (pH 7); 100% in experiment [1] (pH 8). In addition, the “Observed in vitro Pi Binding, %” value is 58.6% in experiment [1] (pH 4.0) and 93.8% in experiment [1] (pH 6.0).
Turning to `O=C([O-])[O-].[Ca+2]` [Calcium Carbonate, calcium carbonate], in experiment [2] (pH 6.0), the “Observed in vitro Pi Binding, %” value is 90%.
With `O=C([O-])CC(O)(CC(=O)[O-])C(=O)[O-].O=C([O-])CC(O)(CC(=O)[O-])C(=O)[O-].[Ca+2].[Ca+2].[Ca+2]` [Calcium Citrate, calcium citrate], the “Observed in vitro Pi Binding, %” value in experiment [2] (pH 6.0) is on record as 10%; in experiment [2] (pH 6.5) it was 20% at pH 6.5 (NOTE 2).
On to `CC(O)C(=O)[O-].CC(O)C(=O)[O-].[Ca+2]` (centres unmarked) [Calcium Lactate, calcium lactate], for which the “Observed in vitro Pi Binding, %” value in experiment [2] (pH 6.0) is 90%.
Consider `O=C(O)CCC(=O)O` [Calcium Succinate, butanedioic acid calcium salt], for which the “Pi binding compared with calcium acetate (FIG. 1)” value in experiment [1] (each pH value in the range from pH 4 to 8) is “matches or exceeds”. The “Observed in vitro Pi Binding, %” value in experiment [1] (pH 4.0) turned out to be 59.4%; in experiment [1] (pH 6.0) it was 94.0%. Further, in experiment [3] (ingested close in time to test meal), the “dietary phosphorus absorbed from the GI tract” value is on record as “about 20%”. Moreover, the “change in the percentage of dietary calcium absorbed from the GI tract” value in experiment [3] (versus placebo day) is reported as “less than 10%”.
As to calcium gluconate, the “Observed in vitro Pi Binding, %” value in experiment [2] (pH 6.0) is 90%.

Source of the values: US20110269837A1, “PHOSPHORUS BINDER COMPOSITION FOR TREATMENT OF HYPERPHOSPHATEMIA” (BIOLINK LIFE SCIENCES, INC., priority 2010, published 2011).
